Reference: paper PMC11035696, “Prospective de novo drug design with deep interactome learning” (Nature Communications, 2024)
Several values for one entry are separate records, joined by “and”; a condition that tells them apart may be missing. Equal entries are not always repeated. Blank lines part the entries; values can stand above or below the compound they belong to.

Experiments:
[1] = target: T1, human PPARγ (Homo sapiens, UniProt P37231); experiment: Gal4-hybrid reporter gene assay, PPARγ activation; assay type: cell-based
T1 construct: expressed in transfected cells; host or cells: HEK293T
T1 sequence (P37231 238-503 limits assumed): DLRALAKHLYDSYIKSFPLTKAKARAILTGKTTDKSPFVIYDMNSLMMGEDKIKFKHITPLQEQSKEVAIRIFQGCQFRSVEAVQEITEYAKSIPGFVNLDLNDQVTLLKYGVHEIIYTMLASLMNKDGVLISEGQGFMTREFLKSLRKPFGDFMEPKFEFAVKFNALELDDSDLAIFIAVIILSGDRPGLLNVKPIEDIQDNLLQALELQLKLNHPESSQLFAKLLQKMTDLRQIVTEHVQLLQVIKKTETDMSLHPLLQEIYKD
Procedure: (§1) Compounds 1–3 were characterized in a hybrid reporter gene assay for their agoniztic effect on human nuclear receptors PPARα/γ/δ, RXRα, FXRα, RARα in HEK293T cells. Compound 1 was tested in an isothermal titration calorimetry (ITC) assay to measure direct binding affinity to the ligand-binding domain of PPARγ. ADME properties were measured in standardized assays at Roche.
(§2) PPAR activation was determined in uniform Gal4-hybrid reporter gene assays for the PPARα, PPARγ and PPARδ isoforms in HEK293T cells (German Collection of Microorganisms and Cell Culture GmbH, DSMZ) which were transiently transfected with pFR-Luc (Stratagene, La Jolla, CA, USA; reporter) and pRL-SV40 (Promega, Madison, WI, USA; internal control) and one pFA-CMV-hPPAR-LBD[97] clone, coding for the hinge region and ligand binding domain of the canonical isoform of human PPARα, PPARγ, PPARδ or respectively. Cells were cultured in Dulbecco’s modified Eagle’s medium (DMEM), high glucose supplemented with 10% fetal calf serum (FCS), sodium pyruvate (1 mM), penicillin (100 U ⋅ ml^-1), and streptomycin (100 μg ⋅ ml^-1) at 37 °C and 5% CO2 and seeded in 96-well plates (3 × 10^4 cells per well). After 24 h, medium was changed to Opti-MEM without supplements and cells were transiently transfected using Lipofectamine LTX reagent (Invitrogen) according to the manufacturer’s protocol. Five hours after transfection, cells were incubated with the test compounds in Opti-MEM supplemented with penicillin (100 U ⋅ ml^-1), streptomycin (100 μg ⋅ ml^-1) and 0.1% DMSO for 16 h before luciferase activity was measured using the Dual-Glo Luciferase Assay System (Promega) according to the manufacturer’s protocol on a Tecan Spark luminometer (Tecan Deutschland GmbH, Germany). Firefly luminescence was divided by Renilla luminescence and multiplied by 1000 resulting in relative light units (RLU) to normalize for transfection efficiency and cell growth. Fold activation was obtained by dividing the mean RLU of a test compound by the mean RLU of the untreated control. All samples were tested in at least three biologically independent experiments in duplicates. For dose-response curve fitting and calculation of EC50 values, the equation “[Agonist] versus response (variable slope—four parameters)” was used in GraphPad Prism (version 7.00, GraphPad Software, La Jolla, CA, USA) with fold activation data. The reference agonizts GW7647 (PPARα)[98],[99], pioglitazone (PPARγ)[100],[101] and L165,041 (PPARδ)[102],[103] were used to validate the assays and to monitor assay performance. Nuclear receptor selectivity profiling was performed with corresponding pFA-CMV-hNR-LBD clones and suitable reference agonizts on RARα (pFA-CMV-hRARα-LBD[104], 1 μM tretinoin), LXRα (pFA-CMV-hLXRα-LBD[104], 1 μM TO901317) and RXRα (pFA-CMV-h RXRα-LBD[105], 1 μM Bexarotene).

[2] = target: T2, human PPARα (Homo sapiens, UniProt Q07869); experiment: Gal4-hybrid reporter gene assay, PPARα activation; assay type: cell-based; details: for Fold PPARα activation: individual replicates, source data Fig. 5
T2 construct: expressed in transfected cells; host or cells: HEK293T
T2 sequence (Q07869 239-466 limits assumed): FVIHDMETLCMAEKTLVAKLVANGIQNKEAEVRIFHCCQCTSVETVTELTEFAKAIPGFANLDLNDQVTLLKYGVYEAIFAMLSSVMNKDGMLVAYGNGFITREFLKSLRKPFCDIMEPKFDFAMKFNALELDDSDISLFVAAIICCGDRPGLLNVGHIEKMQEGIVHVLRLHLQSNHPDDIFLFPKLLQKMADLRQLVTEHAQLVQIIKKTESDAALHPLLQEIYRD
Procedure: as §1, §2

[3] = target: T3, retinoic acid receptor (RAR)α (Homo sapiens, UniProt P10276); experiment: Nuclear receptor selectivity profiling, hybrid reporter gene assay, RARα; assay type: cell-based
T3 construct: RARα (pFA-CMV-hRARα-LBD[104], 1 μM tretinoin); expressed in transfected cells; host or cells: HEK293T
T3 sequence (P10276 183-417 limits assumed): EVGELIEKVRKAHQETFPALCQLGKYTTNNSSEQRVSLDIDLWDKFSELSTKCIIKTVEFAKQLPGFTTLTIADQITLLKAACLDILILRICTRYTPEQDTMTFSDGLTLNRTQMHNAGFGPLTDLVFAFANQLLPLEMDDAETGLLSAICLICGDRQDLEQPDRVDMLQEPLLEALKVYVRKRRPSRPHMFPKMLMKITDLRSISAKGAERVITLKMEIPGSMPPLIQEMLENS
Procedure: as §1, §2

[4] = target: T4, human PPARδ (Homo sapiens, UniProt Q03181); experiment: Gal4-hybrid reporter gene assay, PPARδ activation; assay type: cell-based; details: result in words
T4 construct: expressed in transfected cells; host or cells: HEK293T
T4 sequence (Q03181 211-439 limits assumed): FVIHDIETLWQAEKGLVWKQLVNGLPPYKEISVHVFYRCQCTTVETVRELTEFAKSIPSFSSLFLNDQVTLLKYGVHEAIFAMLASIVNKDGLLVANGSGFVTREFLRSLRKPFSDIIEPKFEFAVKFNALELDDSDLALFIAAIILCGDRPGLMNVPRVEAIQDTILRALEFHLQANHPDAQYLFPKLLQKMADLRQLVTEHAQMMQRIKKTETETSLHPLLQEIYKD
Procedure: as §1
PPAR activation was determined in uniform Gal4-hybrid reporter gene assays for the PPARα, PPARγ and PPARδ isoforms in HEK293T cells (German Collection of Microorganisms and Cell Culture GmbH, DSMZ) which were transiently transfected with pFR-Luc (Stratagene, La Jolla, CA, USA; reporter) and pRL-SV40 (Promega, Madison, WI, USA; internal control) and one pFA-CMV-hPPAR-LBD[97] clone, coding for the hinge region and ligand binding domain of the canonical isoform of human PPARα, PPARγ, PPARδ or respectively. Cells were cultured in Dulbecco’s modified Eagle’s medium (DMEM), high glucose supplemented with 10% fetal calf serum (FCS), sodium pyruvate (1 mM), penicillin (100 U ⋅ ml^-1), and streptomycin (100 μg ⋅ ml^-1) at 37 °C and 5% CO2 and seeded in 96-well plates (3 × 10^4 cells per well). After 24 h, medium was changed to Opti-MEM without supplements and cells were transiently transfected using Lipofectamine LTX reagent (Invitrogen) according to the manufacturer’s protocol. Five hours after transfection, cells were incubated with the test compounds in Opti-MEM supplemented with penicillin (100 U ⋅ ml^-1), streptomycin (100 μg ⋅ ml^-1) and 0.1% DMSO for 16 h before luciferase activity was measured using the Dual-Glo Luciferase Assay System (Promega) according to the manufacturer’s protocol on a Tecan Spark luminometer (Tecan Deutschland GmbH, Germany). Firefly luminescence was divided by Renilla luminescence and multiplied by 1000 resulting in relative light units (RLU) to normalize for transfection efficiency and cell growth. Fold activation was obtained by dividing the mean RLU of a test compound by the mean RLU of the untreated control. […]

[5] = target: T5, liver X receptor (LXR)α (Homo sapiens, UniProt Q13133); experiment: Nuclear receptor selectivity profiling, hybrid reporter gene assay, LXRα; assay type: cell-based
T5 construct: LXRα (pFA-CMV-hLXRα-LBD[104], 1 μM TO901317); expressed in transfected cells; host or cells: HEK293T
T5 sequence (Q13133 209-447 limits assumed): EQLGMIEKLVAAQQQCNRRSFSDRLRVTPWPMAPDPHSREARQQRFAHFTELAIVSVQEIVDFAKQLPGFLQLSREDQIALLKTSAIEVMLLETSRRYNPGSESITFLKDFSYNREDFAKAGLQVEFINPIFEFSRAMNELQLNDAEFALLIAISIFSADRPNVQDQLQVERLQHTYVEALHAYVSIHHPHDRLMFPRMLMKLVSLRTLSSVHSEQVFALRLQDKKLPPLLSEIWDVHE
Procedure: as §2

[6] = target: T6, retinoid X receptor (RXR)α (Homo sapiens, UniProt P19793); experiment: Nuclear receptor selectivity profiling, hybrid reporter gene assay, RXRα; assay type: cell-based
T6 construct: RXRα (pFA-CMV-h RXRα-LBD[105], 1 μM Bexarotene); expressed in transfected cells; host or cells: HEK293T
T6 sequence (P19793 227-458 limits assumed): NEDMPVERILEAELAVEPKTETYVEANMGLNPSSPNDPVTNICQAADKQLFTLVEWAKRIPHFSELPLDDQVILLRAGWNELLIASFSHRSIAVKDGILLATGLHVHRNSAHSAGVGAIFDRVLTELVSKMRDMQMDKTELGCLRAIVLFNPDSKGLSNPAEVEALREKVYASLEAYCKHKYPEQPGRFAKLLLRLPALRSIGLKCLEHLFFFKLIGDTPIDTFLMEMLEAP
Procedure: as §1, §2

[7] = system: PPARγ; details: known PPARγ activity of ChEMBL ligands; ref ChEMBL database; cited from earlier work

PPARγ reporter activation, replicate values (Figure 5) ([1]; conc. 0,00000200 M): 8,955 and 11,943 and 12,245 and 11,406
PPARγ reporter activation, replicate values (Figure 5) ([1]; conc. 0,00000300 M): 17,358 and 14,143 and 17,954
PPARγ reporter activation, replicate values (Figure 5) ([1]; conc. 1,00000000e-007 M): 0,766 and 0,976 and 1,313
PPARγ reporter activation, replicate values (Figure 5) ([1]; conc. 1,00000000e-008 M): 0,785 and 0,961 and 1,208
EC50 ([1]; hybrid reporter gene assay, HEK293T cells, read-out: EC50(PPARγ)): 1.8 ± 0.1 µM
Fold PPARα activation ([2]; conc. 0,00000100 M): 1,270 and 1,357 and 1,503
Fold PPARα activation ([2]; conc. 0,00000300 M): 2,302 and 2,145 and 2,016
Fold PPARα activation ([2]; conc. 0,00000600 M): 4,397 and 3,518 and 3,421
Fold PPARα activation ([2]; conc. 0,00001000 M): 4,249 and 4,283 and 3,276
Fold PPARα activation ([2]; conc. 1,00000000e-007 M): 0,978 and 1,133 and 1,009
Fold PPARα activation ([2]; conc. 1,00000000e-008 M): 1,321 and 1,277 and 1,261
Fold PPARα activation ([2]; conc. 3,00000000e-007 M): 1,112 and 1,105 and 1,170
EC50 ([2]; hybrid reporter gene assay, HEK293T cells): 3.4 ± 0.3 µM
RARα reporter activation, replicate values (DMSO ctrl = 1,000) ([3]; 3 µM): 1,594 and 0,817 and 1,542
RARα reporter activation, replicate values (DMSO ctrl = 1,000) ([3]; 10 µM): 1,322 and 1,046 and 1,521
activity on PPARδ [4]: no discernible activity
LXRα reporter activation, replicate values (DMSO ctrl = 1,000) ([5]; 3 µM): 2,211 and 1,139 and 1,444
LXRα reporter activation, replicate values (DMSO ctrl = 1,000) ([5]; 10 µM): 2,149 and 1,346 and 1,762
RXRα reporter activation, replicate values (DMSO ctrl = 1,000) ([6]; 3 µM): 1,197 and 1,077 and 1,363
RXRα reporter activation, replicate values (DMSO ctrl = 1,000) ([6]; 10 µM): 1,155 and 1,200 and 1,295
SMILES: COc1ccc(Oc2ccc3c(c2)ncn3CCOc2ccc(CCC(=O)O)cc2)cc1 [Compound 3]
PPARγ reporter activation, replicate values (Figure 5) ([1]; conc. 0,00000100 M): 3,029 and 3,245 and 3,909 and 5,555 and 6,269 and 5,771 and 5,328
PPARγ reporter activation, replicate values (Figure 5) ([1]; conc. 0,00001000 M): 19,221 and 19,629 and 17,043 and 19,534 and 21,221 and 20,328 and 19,624
PPARγ reporter activation, replicate values (Figure 5) ([1]; conc. 3,00000000e-007 M): 1,068 and 1,571 and 1,294 and 2,247 and 2,063 and 1,947 and 1,524

SMILES: CCCc1cc(C(F)(F)F)ccc1OCCCOc1ccc(OCC(=O)O)c(C)c1 [ChEMBL213355]
pEC50 [7]: 6.82
